Assay results from paper PMC8143347, “Metabolism and Interspecies Variation of IMMH-010, a Programmed Cell Death Ligand 1 Inhibitor Prodrug” (Pharmaceutics, 2021).
Entries after “also recorded” stand apart in the source; their conditions may differ. Values belong to the molecule of their own block, whether it stands above or below them.

How the values were obtained:
Type in all cases: in vitro ADME
[1] = target: T1, CES1 (Homo sapiens, UniProt P23141); experiment: Chemical inhibition of IMMH-010 hydrolysis in HLM, selective CES1 inhibitor; parameters: tissue BD Gentest; host or cells: pooled mixed-gender human liver microsomes; conditions: 100 μM inhibitor, IMMH-010 10 µM, HLM 0.2 mg/mL, 15 min, vs no inhibitor group
T1 sequence (P23141 18-567): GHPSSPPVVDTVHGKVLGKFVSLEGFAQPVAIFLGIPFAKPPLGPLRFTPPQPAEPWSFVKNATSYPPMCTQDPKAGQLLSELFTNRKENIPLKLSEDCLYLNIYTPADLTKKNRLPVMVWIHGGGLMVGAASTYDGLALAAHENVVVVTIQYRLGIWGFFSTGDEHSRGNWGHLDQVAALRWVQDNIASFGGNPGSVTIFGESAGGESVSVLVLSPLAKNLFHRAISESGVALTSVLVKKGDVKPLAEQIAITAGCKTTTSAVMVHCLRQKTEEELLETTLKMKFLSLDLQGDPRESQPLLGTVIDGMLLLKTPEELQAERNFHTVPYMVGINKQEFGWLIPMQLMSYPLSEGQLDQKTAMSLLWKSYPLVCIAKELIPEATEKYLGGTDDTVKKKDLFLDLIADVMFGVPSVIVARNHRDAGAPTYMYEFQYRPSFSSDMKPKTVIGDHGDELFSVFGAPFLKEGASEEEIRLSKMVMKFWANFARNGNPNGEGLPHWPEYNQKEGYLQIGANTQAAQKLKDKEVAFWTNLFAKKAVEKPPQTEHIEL
Protocol: (§1) Selective chemical inhibitors and recombinant human enzymes were used to investigate the esterase responsible for IMMH-010 metabolism in HLM. The selective CES1 and CES2 inhibitors were digitonin (100 μM) and telmisartan (50 μM), respectively. IMMH-010 (10 µM) was incubated with HLM (0.2 mg/mL) at 37 °C for 0 and 15 min in the presence of chemical inhibitors. Control samples were incubated without inhibitors.

[2] = IMMH-010 stability in human plasma; conditions: 10 μM, after 1 h of incubation
Protocol: (§2) IMMH-010 hydrolysis was investigated in human, monkey, rat, and mouse plasma. […] IMMH-010 (10 μM) was incubated in rat or mouse plasma (0.2 mL) at 4 °C for 60 min. The experiments were performed in triplicate. The reactions were initiated by the addition of IMMH-010 (10 μM). After incubation, the reactions were stopped by adding 2 volumes of ice-cold acetonitrile. After vortexing and centrifuging, the concentrations of IMMH-010 and YPD-29B in the supernatant were determined by liquid chromatography with tandem mass spectrometry (LC-MS/MS). The compound olmesartan (10 μM), a substrate of paraoxonase 1, was set as the positive control.

[3] = IMMH-010 stability in monkey plasma; conditions: 10 μM, after 1 h of incubation
Protocol: as §2

[4] = IMMH-010 stability in rat plasma; conditions: 10 μM, after 1 h of incubation
Protocol: (§3) IMMH-010 hydrolysis was investigated in human, monkey, rat, and mouse plasma. IMMH-010 (1 μM) was incubated in human, monkey, or […] plasma (0.2 mL) at 37 °C for 120 min. IMMH-010 (10 μM) was incubated in rat or mouse plasma (0.2 mL) at 4 °C for 60 min. The experiments were performed in triplicate. The reactions were initiated by the addition of IMMH-010 (10 μM). After incubation, the reactions were stopped by adding 2 volumes of ice-cold acetonitrile. After vortexing and centrifuging, the concentrations of IMMH-010 and YPD-29B in the supernatant were determined by liquid chromatography with tandem mass spectrometry (LC-MS/MS). The compound olmesartan (10 μM), a substrate of paraoxonase 1, was set as the positive control.

[5] = IMMH-010 stability in mouse plasma; conditions: 10 μM, after 1 h of incubation
Protocol: as §3

[6] = target: T2, CES2 (Homo sapiens, UniProt O00748); experiment: Chemical inhibition of IMMH-010 hydrolysis in HLM, selective CES2 inhibitor; parameters: tissue BD Gentest; host or cells: pooled mixed-gender human liver microsomes; conditions: 50 μM inhibitor, IMMH-010 10 µM, HLM 0.2 mg/mL, 15 min
T2 sequence (O00748 27-559): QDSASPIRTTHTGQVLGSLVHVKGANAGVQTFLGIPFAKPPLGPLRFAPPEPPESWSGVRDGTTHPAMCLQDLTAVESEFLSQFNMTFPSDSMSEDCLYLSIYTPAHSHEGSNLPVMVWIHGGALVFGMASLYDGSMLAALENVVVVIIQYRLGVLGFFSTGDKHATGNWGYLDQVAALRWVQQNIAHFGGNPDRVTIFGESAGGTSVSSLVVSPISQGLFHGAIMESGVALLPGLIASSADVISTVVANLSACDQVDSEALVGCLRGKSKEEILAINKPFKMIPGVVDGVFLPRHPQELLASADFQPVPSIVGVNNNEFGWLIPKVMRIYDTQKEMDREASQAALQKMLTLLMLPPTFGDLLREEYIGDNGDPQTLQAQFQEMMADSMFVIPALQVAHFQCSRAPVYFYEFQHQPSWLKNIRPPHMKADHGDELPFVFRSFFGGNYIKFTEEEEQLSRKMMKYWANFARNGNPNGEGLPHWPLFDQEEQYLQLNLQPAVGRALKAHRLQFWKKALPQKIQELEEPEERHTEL
Protocol: as §1

SMILES: C[C@@H]1CC[C@@]2(OC1)O[C@H]1[C@@H](O)[C@H]3[C@@H]4CC[C@H]5C[C@@H](O[C@@H]6O[C@H](CO)[C@H](O[C@@H]7O[C@H](CO)[C@@H](O)[C@H](O[C@@H]8OC[C@@H](O)[C@H](O)[C@H]8O)[C@H]7O[C@@H]7O[C@H](CO)[C@H](O)[C@H](O[C@@H]8O[C@H](CO)[C@@H](O)[C@H](O)[C@H]8O)[C@H]7O)[C@H](O)[C@H]6O)[C@H](O)C[C@]5(C)[C@H]4CC[C@]3(C)[C@H]1[C@@H]2C [digitonin]
- inhibition of the formation of YPD-29B [1]: 35.8%

- decrease of control compound in plasma [2]: more than 80%
- decrease of control compound in plasma [3]: more than 80%
- decrease of control compound in plasma [4]: more than 80%
- decrease of control compound in plasma [5]: more than 80%
SMILES: CCCc1nc(C(C)(C)O)c(C(=O)O)n1Cc1ccc(-c2ccccc2-c2nnn[nH]2)cc1 [olmesartan, reference compound]

SMILES: CCCc1nc2c(C)cc(-c3nc4ccccc4n3C)cc2n1Cc1ccc(-c2ccccc2C(=O)O)cc1 [telmisartan]
- inhibition of the formation of YPD-29B [6]: did not inhibit; also recorded: no inhibition
